Source: PMC9182146, “BSA Interaction, Molecular Docking, and Antibacterial Activity of Zinc(II) Complexes Containing the Sterically Demanding Biomimetic N3S2 Ligand: The Effect of Structure Flexibility” (Molecules, 2022)
Read-outs that look alike come from different tables or passages of the source.

What was measured:
BSA [1] = target: T1, BSA (Bos taurus, UniProt P02769); settings: T = 298 K
From the text: The Förster resonance energy transfer (FRET) mechanism allows the excitation energy to be passed from the donor to the acceptor without photon emission from the former molecular system. According to the FRET principle, the rate of energy transfer depends on the distance between the donor and the acceptor, the orientation of the donor and the acceptor dipoles, and the degree of overlap between the donor emission spectrum and the acceptor absorption spectrum. Energy transfer efficiency (E) can be used to evaluate the distance (r) between zinc complexes (acceptor) and BSA (donor) in protein using Equation (8), (8) E=1−F/F0=R06/R06+r^6 where F and F0 are the fluorescence intensity of BSA in the presence and absence of the acceptor, respectively, r is the distance between the acceptor and donor, R0 is the critical distance for 50% energy transfer and can be calculated using Equation (9), (9) R06=8.8×10^−25K^2N^−4∅J where the spatial orientation factor of the dipole K^2 = 2/3, the refractive index of the medium (water) N = 1.333, and the fluorescence quantum yield of the donor BSA ∅ = 0.15 [10, 38]. The spectral overlap integral (J), calculated from the overlap of the acceptor UV absorption spectra with the donor fluorescence emission spectra, is given using Equation (10). (10) J=∫0∞Fλε λλ^4dλ/∫0∞Fλdλ

Escherichia coli = assay: MIC and MBC antibacterial test; type: cell-based; settings: 30 °C
Description: (§1) All complexes were tested for antibacterial activity against both […] bacteria. The antibacterial function of complexes, represented as the diameter of the growth-inhibition region in millimeters, is shown in Figure 8. The minimum inhibitory concentration (MIC) and minimum bactericidal concentration (MBC) of complexes needed to inhibit bacterial growth are presented in Table 4. The MBC is identified by the determination of the lowest concentration of antibacterial agents that reduces the viability of the initial bacterial inoculum by a predetermined reduction of 99.9%. The value agreed on in two or more occasions was adopted as the MIC or MBC strain. Chloramphenicol was used for control purposes. From the inhibition zone, as well as the MIC and MBC data, one can conclude the following: Firstly, both complexes were active, but the activity was less than that for the normal drug (chloramphenicol).
(§2) The synthesized complexes were tested against both […] bacteria for antibacterial activity. The bacteria were incubated by shaking in the thermostat at 30 °C overnight. At this stage, a loop of each culture was placed in 10 mL of 10-fold diluted broth, and the test bacteria cultures containing 10^5 mL^−1 cells were used for antimicrobial testing. […] MIC and MBC as recommended by the NCCLS (National Committee for Clinical Laboratory Standards, Albany, NY, USA). After 24 h of incubation, the MIC was read at 30 °C equivalent to the concentration of the tube without visible growth to measure the effect of decreased antibiotic/antiseptic concentrations over a defined period of time on the inhibition of microbial population growth. These assessments may be quite useful during the R&D phase of the product to determine the appropriate concentrations required in the final product, since the concentration of the drug required to produce the effect is normally several hundreds to thousands of times lower than the concentration found in the completed dosage form.

Staphylococcus aureus = assay: MIC and MBC antibacterial test; type: cell-based; settings: 30 °C; for MIC: 24 h
Description: as §1, §2

Enterococcus = assay: MIC and MBC antibacterial test; type: cell-based; settings: 30 °C; for MIC: 24 h
Description: as §1, §2

Pseudomonas aeruginosa = assay: MIC and MBC antibacterial test; type: cell-based; settings: 30 °C; for MIC: 24 h
Description: as §1, §2

BSA [2] = target: T1, BSA; assay: Cyclic voltammetry of BSA with zinc complexes; settings: for BSA cathodic peak potential after addition of complex: BSA alone approximately −0.39 V, water, Ag/AgCl reference; for kR/kO binding constants: reduced over oxidized form
Description: Cyclic voltammograms of BSA in water in the presence and absence of zinc complexes were used for a voltammetric study.
The optical absorptions were performed using a 1.0 cm quartz cell on a JASCO spectrophotometer (V-780). Fluorescence measurements were carried out using the JASCO spectrofluorometer (FP-8300 model). The excitation wavelength was set at 280 nm, and the wavelength of the emission was set to 285–600 nm. Picosecond fluorescence decay profiles were measured using the FluoTime 300 (Pico Quant, Berlin, Germany) by the single-photon counting method. Lifetimes were evaluated using software supplied with the instrument. The time-resolved fluorescence instrumentation was the same as for steady-state experiments. Cyclic voltammograms were carried out on a Gamry setup with a carbon working electrode and a platinum wire as a counter electrode. A silver–silver chloride (Ag/AgCl) electrode was used as a reference electrode. All tests were carried out in oxygen-free solutions, and sodium sulfate was used as an electrolyte support. Dynamic light scattering (DLS) was used to determine the distribution profile of the particle size in the solution.

BSA [3] = target: T1, BSA; assay: Fluorescence quenching of BSA (Stern–Volmer); settings: for KSV (called binding constants in conclusions) / Kq: temperature not stated
[4] = Dynamic light scattering size distribution of self-assembled adducts in water; type: physicochemical; settings: DLS, room temperature
BSA [5] = target: T1, BSA; settings: for ΔHº / ΔSº: 288–308 K
Description: The association constants and number of binding sites between the zinc complexes and BSA were calculated according to Equation (4). (4) logF0−F/F=logKA+nlogQ
In general, ΔGº reflects the spontaneity of the reaction, whereas ΔHº and ΔSº are the main quantities for determining the binding force. The thermodynamic parameters of ΔHº and ΔSº were calculated using Equation (5), and the Gibbs free energy was estimated from Equation (6). lnKA = −ΔHº/RT + ΔSº/R(5) ΔGº = ΔHº − TΔSº = −RT ln KA(6)

T1 sequence (P02769 25-607): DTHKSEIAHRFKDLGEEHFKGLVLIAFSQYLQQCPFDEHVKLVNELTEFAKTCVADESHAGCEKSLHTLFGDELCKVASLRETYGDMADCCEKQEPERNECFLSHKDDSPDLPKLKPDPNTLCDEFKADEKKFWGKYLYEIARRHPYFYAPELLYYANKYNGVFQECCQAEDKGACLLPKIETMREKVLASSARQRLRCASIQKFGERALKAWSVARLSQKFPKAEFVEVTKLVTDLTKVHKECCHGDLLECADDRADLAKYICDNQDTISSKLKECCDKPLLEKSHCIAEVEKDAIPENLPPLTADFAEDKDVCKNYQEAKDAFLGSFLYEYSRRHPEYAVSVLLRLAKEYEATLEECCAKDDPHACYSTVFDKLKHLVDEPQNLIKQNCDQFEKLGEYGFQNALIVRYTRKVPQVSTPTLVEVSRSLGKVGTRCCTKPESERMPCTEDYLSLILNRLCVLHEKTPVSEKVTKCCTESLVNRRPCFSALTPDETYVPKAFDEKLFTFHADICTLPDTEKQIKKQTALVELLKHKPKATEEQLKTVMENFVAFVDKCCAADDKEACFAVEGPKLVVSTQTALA

SMILES | J (spectral overlap integral) (BSA [1]) | R0 (critical distance for 50% energy transfer) (BSA [1]) [nm] | r (distance between acceptor and donor) (BSA [1]) [nm] | ∫F donor λ Δλ (BSA [1]) | MBC (Staphylococcus aureus) [µg/mL] | MIC (Staphylococcus aureus) [µg/mL] | MBC (Enterococcus) [µg/mL] | MIC (Enterococcus) [µg/mL] | MBC (Pseudomonas aeruginosa) [µg/mL] | MIC (Pseudomonas aeruginosa) [µg/mL] | BSA cathodic peak potential after addition of complex (BSA [2]) [V] | kR/kO binding constants (BSA [2]) | Kq (quenching rate constant) (BSA [3]; T = 288 K) | Ksv (Stern–Volmer quenching constant) (BSA [3]; T = 288 K) | Kq (quenching rate constant) (BSA [3]; T = 298 K) | Ksv (Stern–Volmer quenching constant) (BSA [3]; T = 298 K) | Kq (quenching rate constant) (BSA [3]; T = 318 K) | Ksv (Stern–Volmer quenching constant) (BSA [3]; T = 318 K) | KSV (called binding constants in conclusions) (BSA [3]) [M⁻¹] | Kq (BSA [3]) [M⁻¹ s⁻¹] | further results
CC(=Nc1cc(C(C)(C)C)cc(C(C)(C)C)c1[S-])c1cccc(C(C)=Nc2cc(C(C)(C)C)cc(C(C)(C)C)c2[S-])n1.[Zn+2] [DBZ, [Zn(py^tBuN2Me2S2)]] | 9.0 10^−13 L mol^−1 cm^3 | 2.51 | 3.21 | 79.6 | 25.0 | 12.5 | 50.0 | 25.0 | 25.0 | 12.5 | −0.55 | 0.43 | 4.15 10^14 M^−1 s^−1 | 19.0 10^5 M^−1 | 5.40 10^14 M^−1 s^−1 | 24.7 10^5 M^−1 | 5.97 10^14 M^−1 s^−1 | 27.3 10^5 M^−1 | 2.47e+06 | 5.4e+14 | MBC (Escherichia coli): 50.0 µg/mL; MIC (Escherichia coli; 24 h): 25.0 µg/mL; DBZ binds to BSA more than DBZH4 (BSA [3]; ratio of KSV, DBZ over DBZH4): ~30 fold; DBZ binds stronger than DBZH4 (BSA [3]; ratio of binding constants, conclusions): about 35 times; mean size of self-assembled adduct with BSA [4]: 110 nm; ΔHº (BSA [5]): 10 ± 2.39 kcal/mol; ΔSº (BSA [5]): 261 ± 35 J mol^−1 K^−1; KA (association constant) (BSA [5]; T = 288 K): 9.9 10^5 M^−1; n (number of binding sites) (BSA [5]; T = 288 K): 1.12; ΔGº (BSA [5]; T = 288 K): -7.93 ± 0.019 kcal/mol; KA (association constant) (BSA [5]; T = 298 K): 22.8 10^5 M^−1; n (number of binding sites) (BSA [5]; T = 298 K): 1.32; ΔGº (BSA [5]; T = 298 K): -8.56 ± 0.096 kcal/mol; KA (association constant) (BSA [5]; T = 308 K): 30.7 10^5 M^−1; n (number of binding sites) (BSA [5]; T = 308 K): 1.45; ΔGº (BSA [5]; T = 308 K): -9.18 ± 0.19 kcal/mol; n (number of binding sites) (BSA [5]; all temperatures): ~1
CC(Nc1cc(C(C)(C)C)cc(C(C)(C)C)c1[S-])c1cccc(C(C)Nc2cc(C(C)(C)C)cc(C(C)(C)C)c2[S-])n1.[Zn+2] (centres unmarked) [DBZH4, [Zn(py^tBuN2H4Me2S2)]] | 5.4 10^−13 L mol^−1 cm^3 | 2.31 | 3.67 | 90.0 | 30.0 | 15.0 | 60.0 | 30.0 | 30.0 | 15.0 | −0.57 | 0.48 | 0.150 10^14 M^−1 s^−1 | 0.69 10^5 M^−1 | 0.153 10^14 M^−1 s^−1 | 0.70 10^5 M^−1 | 0.155 10^14 M^−1 s^−1 | 0.71 10^5 M^−1 | 70000 | 1.5e+13 | mean size of self-assembled adduct with BSA [4]: 339 nm; size range of self-assembled adduct with BSA [4]: 100–1000 nm; ΔHº (BSA [5]): 15.5 ± 0.48 kcal/mol; ΔSº (BSA [5]): 304 ± 6 J mol^−1 K^−1; KA (association constant) (BSA [5]; T = 288 K): 0.13 10^5 M^−1; n (number of binding sites) (BSA [5]; T = 288 K): 1.22; ΔGº (BSA [5]; T = 288 K): -5.4 ± 0.072 kcal/mol; KA (association constant) (BSA [5]; T = 298 K): 0.31 10^5 M^−1; n (number of binding sites) (BSA [5]; T = 298 K): 1.40; ΔGº (BSA [5]; T = 298 K): -6.12 ± 0.048 kcal/mol; KA (association constant) (BSA [5]; T = 308 K): 0.76 10^5 M^−1; n (number of binding sites) (BSA [5]; T = 308 K): 1.42; ΔGº (BSA [5]; T = 308 K): -6.84 ± 0.048 kcal/mol; n (number of binding sites) (BSA [5]; all temperatures): ~1
